In US8063071B2 (GlaxoSmithKline, LLC, priority 2007, dated 2011):
Where a name gives a salt, the structure may show the parent alone.

Columns and labels:
[1] = target: T1, Recombinant human IKKβ (residues 1-737) (Homo sapiens, UniProt O14920); assay: IKK2 assay (TR-FRET); type: biochemical; conditions: ATP 1 μM final, read-out: pIC50 against IKK2 (converted)
T1 construct: Recombinant human IKKβ (residues 1-737); GST (C); made in house
T1 sequence (O14920 1-737): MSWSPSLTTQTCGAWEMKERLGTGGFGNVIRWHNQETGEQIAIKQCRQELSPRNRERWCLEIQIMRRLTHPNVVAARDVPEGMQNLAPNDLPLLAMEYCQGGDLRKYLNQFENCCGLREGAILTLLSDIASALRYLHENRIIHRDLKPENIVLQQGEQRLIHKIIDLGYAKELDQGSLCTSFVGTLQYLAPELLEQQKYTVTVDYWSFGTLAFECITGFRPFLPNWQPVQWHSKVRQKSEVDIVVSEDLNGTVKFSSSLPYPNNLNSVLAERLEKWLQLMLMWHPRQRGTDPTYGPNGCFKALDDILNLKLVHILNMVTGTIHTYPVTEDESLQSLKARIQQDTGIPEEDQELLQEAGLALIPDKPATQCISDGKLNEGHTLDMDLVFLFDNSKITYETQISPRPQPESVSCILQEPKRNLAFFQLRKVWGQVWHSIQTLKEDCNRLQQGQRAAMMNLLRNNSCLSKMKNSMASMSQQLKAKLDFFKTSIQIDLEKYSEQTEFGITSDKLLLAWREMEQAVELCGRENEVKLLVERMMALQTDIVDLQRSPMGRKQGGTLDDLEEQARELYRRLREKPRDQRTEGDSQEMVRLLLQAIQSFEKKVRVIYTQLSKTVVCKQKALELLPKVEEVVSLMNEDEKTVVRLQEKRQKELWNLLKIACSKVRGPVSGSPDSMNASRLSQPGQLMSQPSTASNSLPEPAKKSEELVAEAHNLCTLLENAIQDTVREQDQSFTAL
Summary of the method: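 TR-FRET readout (665 nm over 620 nm Eu reference) of GST-IB Ser32/36 phosphorylation after 60 min detection. Reaction: 1 μM ATP, 25 nM substrate, 0.5-5 nM GST-fused IKKβ 1-737 from baculovirus, pH 7.4 HEPES buffer, 1.7% DMSO, 15 min room temperature, EDTA-terminated.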

[2] = test system: human monocyte stimulated cytokine production (TNF-α); assay: Monocyte assay (LPS-stimulated TNF-α production); type: cell-based; conditions: for IC50: 24 h, 200 ng/mL LPS, TNF-α by ELISA
Summary of the method: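 TNF-α release was measured by ELISA after 24 hrs at 37 C. Cells were stimulated with 200 ng/mL E. coli LPS, with compound added 30 minutes beforehand (0.1% DMSO vehicle). Cells were Ficoll/MACS-isolated CD14+ human monocytes adhered at 1×10^6 cells/mL, and viability was checked by trypan blue.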

Row | SMILES | IC50 [1] | IC50 [2] | inhibition at 0.3 µM ([2]; read-out: inhibition at 300 nM in the monocyte assay)
1 | CCS(=O)(=O)N1CCC(c2c[nH]c3c(C(N)=O)cc(-c4csc(CN(C)CCOC)c4)cc23)CC1 [Example 86, 3-[1-(ethylsulfonyl)-4-piperidinyl]-5-[5-({methyl[2-(methyloxy)ethyl]amino}methyl)-3-thienyl]-1H-indole-7-carboxamide trifluoroacetate] | ≤ 10 µM | ≤ 1500 nM | 
2 | CCS(=O)(=O)N1CCC(c2c[nH]c3c(C(N)=O)cc(-c4cccc(CN5CCCC(CO)C5)c4)cc23)CC1 (stereo not shown) [Example 7, 3-[1-(ethylsulfonyl)-4-piperidinyl]-5-(3-{[3-(hydroxymethyl)-1-piperidinyl]methyl}phenyl)-1H-indole-7-carboxamide] | ≤ 10 µM | ≤ 1500 nM | 
3 | CCS(=O)(=O)N1CCC(c2c[nH]c3c(C(N)=O)cc(-c4cc(CN[C@@H](C)C(C)C)ccc4F)cc23)CC1 [Example 337, 5-[5-({[(1S)-1,2-dimethylpropyl]amino}methyl)-2-fluorophenyl]-3-[1-(ethylsulfonyl)-4-piperidinyl]-1H-indole-7-carboxamide trifluoroacetate] | ≤ 10 µM | ≤ 1500 nM | 
4 | CCS(=O)(=O)N1CCC(c2c[nH]c3c(C(N)=O)cc(-c4csc(CN5CCCC5c5ccccc5)c4)cc23)CC1 (stereo not shown) [Example 46, 3-[1-(ethylsulfonyl)-4-piperidinyl]-5-{5-[(2-phenyl-1-pyrrolidinyl)methyl]-3-thienyl}-1H-indole-7-carboxamide] | ≤ 10 µM |  | 0 to 60%
5 | CCS(=O)(=O)N1CCC(c2c[nH]c3c(C(N)=O)cc(-c4ccc(CCNC(=O)C5CCCCC5)cc4)cc23)CC1 [Example 133, 5-(4-{2-[(cyclohexylcarbonyl)amino]ethyl}phenyl)-3-[1-(ethylsulfonyl)-4-piperidinyl]-1H-indole-7-carboxamide] | ≤ 10 µM | > 1000 nM | 
6 | CCS(=O)(=O)N1CCC(c2c[nH]c3c(C(N)=O)cc(-c4cnn(CCN5CCOCC5)c4)cc23)CC1 [Example 254, 3-[1-(ethylsulfonyl)-4-piperidinyl]-5-{1-[2-(4-morpholinyl)ethyl]-1H-pyrazol-4-yl}-1H-indole-7-carboxamide trifluoroacetate] | ≤ 10 µM | > 1000 nM | 
7 | CCCCNCCn1cc(-c2cc(C(N)=O)c3[nH]cc(C4CCN(S(=O)(=O)CC)CC4)c3c2)cn1 [Example 256, 5-{1-[2-(butylamino)ethyl]-1H-pyrazol-4-yl}-3-[1-(ethylsulfonyl)-4-piperidinyl]-1H-indole-7-carboxamide trifluoroacetate] | ≤ 10 µM | > 1000 nM | 

Second part, led by results:

Row | IC50 [1] | IC50 [2] | SMILES | inhibition at 0.3 µM ([2]; read-out: inhibition at 300 nM in the monocyte assay)
8 | ≤ 10 µM | ≤ 1500 nM | CCS(=O)(=O)N1CCC(c2c[nH]c3c(C(N)=O)cc(-c4cccc(CNS(=O)(=O)c5cccc(F)c5)c4)cc23)CC1 [Example 373, 3-[1-(ethylsulfonyl)-4-piperidinyl]-5-[3-({[(3-fluorophenyl)sulfonyl]amino}methyl)phenyl]-1H-indole-7-carboxamide] | 
9 | ≤ 10 µM | ≤ 1500 nM | CCS(=O)(=O)N1CCC(c2c[nH]c3c(C(N)=O)cc(-c4cccc(CNCC(F)(F)F)c4)cc23)CC1 [Example 38, 3-[1-(ethylsulfonyl)-4-piperidinyl]-5-(3-{[(2,2,2-trifluoroethyl)amino]methyl}phenyl)-1H-indole-7-carboxamide trifluoroacetate] | 
10 | ≤ 10 µM | ≤ 1500 nM | CCNCCc1cccc(-c2cc(C(N)=O)c3[nH]cc(C4CCN(S(=O)(=O)CC)CC4)c3c2)c1 [Example 346, 5-{3-[2-(ethylamino)ethyl]phenyl}-3-[1-(ethylsulfonyl)-4-piperidinyl]-1H-indole-7-carboxamide trifluoroacetate] | 
11 | ≤ 10 µM | ≤ 1500 nM | CCS(=O)(=O)N1CCC(c2c[nH]c3c(C(N)=O)cc(-c4cccc(CNC(=O)Cc5cccs5)c4)cc23)CC1 [Example 366, 3-[1-(ethylsulfonyl)-4-piperidinyl]-5-(3-{[(2-thienylacetyl)amino]methyl}phenyl)-1H-indole-7-carboxamide] | 
